Measured values reported in patent US11786497B2, “High penetration prodrug compositions of retinoids and retinoids-related compounds” (Techfields Pharma Co., Ltd., priority 2007, dated 2023).

How the values were obtained:
[1] = system: human acute promyelocytic leukemia(APL) line; experiment: Survival of mice implanted with human acute promyelocytic leukemia line; assay type: in vivo; details: for None Disease Rate at day 160: animals out of 7; for Life Elongation Rate: control = 100; for Survival Period: n=7
Description: For evaluation of antitumor activity, a human acute promyelocytic leukemia(APL) line derived from a patient with acute promyelocytic leukemia (APL) was implanted into mice.

[2] = system: Lesions similar to psoriasis induced by Malassezia; experiment: Malassezia-induced lesions similar to psoriasis on rabbit skin; assay type: in vivo, Chinese white rabbits; details: 200 μl of 0.05% aqueous solution, topical twice per day, 3 hours after Malassezia; control lesions became worse
Description: Heavy suspensions of Malassezia [Rosenberg, E. W., et al., Mycopathologia, 72, 147-154 (1980)] were applied to shaved skin on the backs of Chinese white rabbits (n=4×10) twice (at 7 am and 7 pm respectively) per day for 2 weeks. […] The control group was only applied with Malassezia.

[3] = In vitro penetration across human skin in modified Franz cells
Procedure: In each case, the vehicle was a pH 7.4 phosphate buffer (0.2 M).
Penetration rates of HPPs and their parent drugs through human skin were measured in vitro by modified Franz cells. A Franz cell had two chambers, the top sample chamber and the bottom receiving chamber. The human skin tissue (360-400 μm thick) that separated the top and the receiving chambers was isolated from the anterior or posterior thigh areas.
A compound tested (0.2 mL, 5% in 0.2 M phosphate buffer, pH 7.4) were added to the sample chamber of a Franz cell. The receiving chamber contains 2 ml of 2% bovine serum albumin in saline which was stirred at 600 rpm. The amount of the tested compound penetrating the skin was determined by high-performance liquid chromatography (HPLC) method.

[4] = Irritative effect or discomfort on skin of mice after topical application; assay type: in vivo; details: 0.1 ml of 0.5% in pH 7.4 phosphate buffer to back of nude mice twice per day, 1 week
Procedure: Irritative effect or discomfort in the skin of mice of HPPs of retinoids or retinoid-related compounds was evaluated during a period of 1 week after the topical application of 0.1 ml of 0.5% of the respective test drug in pH 7.4 phosphate buffer (0.2 M) to the back of nude mice twice per day.

[5] = Conversion of HPPs to parent drugs in human plasma (half life); assay type: in vitro ADME; details: 37° C., HPLC
Procedure: HPPs of retinoids or retinoid-related compounds converted to the parent retinoids or retinoid-related compounds quickly in good yield in human plasma.
A HPP of retinoids or retinoid-related compound (10 mg) was dissolved in 0.1 ml of 0.2M pH 7.4 phosphate buffer. 1 ml of human plasma, preheated to 37° C., was added into the mixture. The mixture was kept in a water bath at 37° C., and at every 2 min intervals 0.2 ml of samples were withdrawn and added to 0.4 ml of methanol to precipitate the plasma protein. The samples were centrifuged for 5 min and analyzed by HPLC.

[6] = system: human breast cancer cells (BCAP-37); experiment: Antitumor activity against human breast cancer cells implanted into nude mice; assay type: in vivo, nude mice (BALB); details: 50 μl of 1% in 0.2M pH 7.4 phosphate buffer, topically to implanted area twice per day from day 3; control 100% incidence
Description: For evaluation of antitumor activity of these prodrugs, human breast cancer cells (BCAP-37) were implanted into nude mice (BALB). […] The average weight of the treated group was 25 grams and that of the control group was 21 grams.

[7] = Solubility in water; assay type: physicochemical
Procedure: (§1) 30 g (0.1 mol) of sodium 9-cis-retinoate was dissolved in 100 ml of acetonitrile. 26.1 g (0.1 mol) of 2-Bromo-N,N-diethylethylamine·HBr was added into the reaction mixture. The mixture was stirred for overnight at RT. The solvents were evaporated off. 200 ml of ethanol was added into the residue. The solid was removed by filtration. The solution was evaporated to dryness. 100 ml of ethyl acetate was added into the reaction mixture. Hexane (100 ml) was added. The solid product was collected by filtration. After drying, it yielded 36 g of the desired product (75%). Hygroscopic product; solubility in water: 30 mg/ml; elementary analysis: C26H42BrNO2; MW: 480.52; calculated % C: 64.99; H: 8.81; Br: 16.63; N: 2.91; O: 6.66; found % C: 65.03; H: 8.80; Br: 16.60; N: 2.89; O: 6.68.
as §1, with “13-cis-retinoate” for “9-cis-retinoate”, “Hygroscopic product; solubility in water: 30 mg/ml; elementary analysis: C26H42BrNO2; MW: 480.52; calculated % C: 64.99; H: 8.81; Br: 16.63; N: 2.91; O: 6.66; found % C: 65.03; H: 8.80; Br: 16.60; N: 2.89; O: 6.68.” left out

[8] = 10 mg/kg per day, transdermally
[9] = parent compound, 5% suspension in pH 7.4 phosphate buffer (0.2 M), isolated human skin, Franz cells, n=5

For `C=C(c1ccc(C(=O)OCN2CCCC2)cc1)c1cc2c(cc1C)C(C)(C)CCC2(C)C.Cl`, the “None Disease Rate at day 160” value ([1]; 5 mg/kg per day, transdermally) was 5/7, the “Life Elongation Rate” value ([1]; 5 mg/kg per day, transdermally) was 306% and the “Survival Period” value ([1]; 5 mg/kg per day, transdermally) was 96.5 ± 4.4 days. For the same compound, the “None Disease Rate at day 160” value [1, 8] was 6/7, the “Life Elongation Rate” value [1, 8] was 529% and the “Survival Period” value [1, 8] was 166.5 ± 5.4 days.
In the case of `Br.CC1=C(/C=C/C(C)=C/C=C/C(C)=C/C(=O)OCCN2CCCCC2)C(C)(C)CCC1`, the “None Disease Rate at day 160” value ([1]; 5 mg/kg per day, transdermally) is reported as 4/7, the “Life Elongation Rate” value ([1]; 5 mg/kg per day, transdermally) is reported as 278% and the “Survival Period” value ([1]; 5 mg/kg per day, transdermally) is reported as 87.8 ± 3.4 days. For the same compound, the “None Disease Rate at day 160” value [1, 8] was 5/7, the “Life Elongation Rate” value [1, 8] was 429% and the “Survival Period” value [1, 8] was 135.2 ± 5.9 days. The “lesions 10 days after application of Malassezia and HPP” value [2] was “resolved”.
For `Br.CC1=C(/C=C/C(C)=C\C=C\C(C)=C\C(=O)OCCN2CCCCC2)C(C)(C)CCC1` [9-cis-retinoic acid 1-piperidineethyl ester·HBr], the “In vitro Penetration Rate (apparent flux) of HPPs” value ([3]; HPP, 5% solution in pH 7.4 phosphate buffer (0.2 M), isolated human skin, Franz cells, n=5) was 0.67 mg/cm^2/h.
In the case of `Br.CC1=C(/C=C/C(C)=C\C=C\C(C)=C\C(=O)OCC2CCCN2)C(C)(C)CCC1` (stereo not drawn) [9-cis-retinoic acid 2-pyrrolidinemethyl ester·HBr], the “None Disease Rate at day 160” value ([1]; 5 mg/kg per day, transdermally) is reported as 3/7, the “Life Elongation Rate” value ([1]; 5 mg/kg per day, transdermally) is reported as 230% and the “Survival Period” value ([1]; 5 mg/kg per day, transdermally) is reported as 72.5 ± 4.6 days. The “None Disease Rate at day 160” value [1, 8] was 5/7, the “Life Elongation Rate” value [1, 8] was 385% and the “Survival Period” value [1, 8] was 121.2 ± 4.8 days.
In the case of `CC1=C(/C=C/C(C)=C\C=C\C(C)=C\C(=O)O)C(C)(C)CCC1` [9-cis-retinoic acid (alitretinoin), 9-cis-retinoic acid, reference compound], the “None Disease Rate at day 160” value ([1]; 5 mg/kg per day, orally) is reported as 1/7, the “Life Elongation Rate” value ([1]; 5 mg/kg per day, orally) is reported as 144% and the “Survival Period” value ([1]; 5 mg/kg per day, orally) is reported as 45.5 ± 2.3 days. The “None Disease Rate at day 160” value ([1]; 10 mg/kg per day, orally) was 3/7, the “Life Elongation Rate” value ([1]; 10 mg/kg per day, orally) was 207% and the “Survival Period” value ([1]; 10 mg/kg per day, orally) was 65.2 ± 4.1 days. The “In vitro Penetration Rate (apparent flux) of Parent compounds” value [3, 9] was 0.005 mg/cm^2/h.
For `CC1=C(/C=C/C(C)=C/C=C/C(C)=C\C(=O)O)C(C)(C)CCC1` [13-cis-retinoic acid (isotretinoin), 13-cis-retinoic acid], the “In vitro Penetration Rate (apparent flux) of Parent compounds” value [3, 9] was 0.005 mg/cm^2/h.
In the case of `C=C(c1ccc(C(=O)OCCN(CC)CC)cc1)c1cc2c(cc1C)C(C)(C)CCC2(C)C.Cl` [N,N-diethylaminoethyl 4-[1-(5,6,7,8-tetrahydro-3,5,5,8,8-pentamethyl-2-naphthalenyl)ethenyl]benzoate·HCl], the “signs of irritative effect or discomfort” value [4] is reported as “None of any signs of irritative effect or discomfort”, the “Half life of HPPs in plasma” value [5] is reported as 15 ± 1 min and the “tumor seen after 20 days” value [6] is reported as “none of tumor was seen”. For the same compound, the “In vitro Penetration Rate (apparent flux) of HPPs” value ([3]; pH 7.4) was 0.35 mg/cm^2/h.
In the case of `Br.CCN(CC)CCOC(=O)/C=C(C)/C=C/C=C(C)\C=C\C1=C(C)CCCC1(C)C` [N,N-diethylaminoethyl 9-cis-retinoate·HBr], the “signs of irritative effect or discomfort” value [4] is reported as “None of any signs of irritative effect or discomfort”, the “Half life of HPPs in plasma” value [5] is reported as 12 ± 1 min and the “tumor seen after 20 days” value [6] is reported as “none of tumor was seen”. For the same compound, the “lesions 10 days after application of Malassezia and HPP” value [2] was “resolved” and the solubility in water [7] was 30 mg/mL.
For `Br.CCN(CC)CCOC(=O)\C=C(C)/C=C/C=C(C)/C=C/C1=C(C)CCCC1(C)C` [N,N-diethylaminoethyl 13-cis-retinoate·HBr], the “signs of irritative effect or discomfort” value [4] was “None of any signs of irritative effect or discomfort”, the “Half life of HPPs in plasma” value [5] was 13 ± 1 min and the “In vitro Penetration Rate (apparent flux) of HPPs” value ([3]; pH 7.4) was 0.85 mg/cm^2/h. It also gave a solubility in water [7] of 30 mg/mL.
With `Br.CCN(CC)CCOC(=O)/C=C(C)/C=C/C=C(C)/C=C/C1=C(C)CCCC1(C)C` [N,N-diethylaminoethyl all-trans-retinoate·HBr] the “signs of irritative effect or discomfort” value [4] was “None of any signs of irritative effect or discomfort”, the “Half life of HPPs in plasma” value [5] was 11 ± 1 min and the “In vitro Penetration Rate (apparent flux) of HPPs” value ([3]; pH 7.4) was 1.25 mg/cm^2/h.
For `CC1=C(/C=C/C(C)=C/C=C/C(C)=C/C(=O)O)C(C)(C)CCC1` [all-trans-retinoic acid (tretinoin), all-trans-retinoic acid, reference compound], the “None Disease Rate at day 160” value ([1]; 5 mg/kg per day, orally) was 0/7, the “Life Elongation Rate” value ([1]; 5 mg/kg per day, orally) was 158% and the “Survival Period” value ([1]; 5 mg/kg per day, orally) was 49.7 ± 3.6 days. The “None Disease Rate at day 160” value ([1]; 10 mg/kg per day, orally) was 2/7, the “Life Elongation Rate” value ([1]; 10 mg/kg per day, orally) was 249% and the “Survival Period” value ([1]; 10 mg/kg per day, orally) was 78.5 ± 3.7 days. For the same compound, the “In vitro Penetration Rate (apparent flux) of Parent compounds” value [3, 9] was 0.005 mg/cm^2/h.
With `C=C(c1ccc(C(=O)O)cc1)c1cc2c(cc1C)C(C)(C)CCC2(C)C` [bexaroten (Targretin ®), reference compound] the “None Disease Rate at day 160” value ([1]; 5 mg/kg per day, orally) was 3/7, the “Life Elongation Rate” value ([1]; 5 mg/kg per day, orally) was 205% and the “Survival Period” value ([1]; 5 mg/kg per day, orally) was 64.5 ± 3.7 days. The “None Disease Rate at day 160” value ([1]; 10 mg/kg per day, orally) was 5/7, the “Life Elongation Rate” value ([1]; 10 mg/kg per day, orally) was 302% and the “Survival Period” value ([1]; 10 mg/kg per day, orally) was 95.2 ± 3.9 days. For the same compound, the “apparent flux value of parent drug” value ([3]; lowest detectable flux 1 μg/cm^2/h, considered not detectable) was 1 μg/cm^2/h and the “In vitro Penetration Rate (apparent flux) of Parent compounds” value [3, 9] was 0.001 mg/cm^2/h.
With `CC1=C(/C=C/C(C)=C/C=C/C(C)=C/COC(=O)CN(C)C)C(C)(C)CCC1.Cl` [retinyl N,N-dimethyl-2-aminoacetate·HCl] the “signs of irritative effect or discomfort” value [4] was “None of any signs of irritative effect or discomfort”, the “Half life of HPPs in plasma” value [5] was 20 ± 1 min and the “In vitro Penetration Rate (apparent flux) of HPPs” value ([3]; pH 7.4) was 1.21 mg/cm^2/h.
With `CC1=C(/C=C/C(C)=C/C=C/C(C)=C/CO)C(C)(C)CCC1` [vitamin A (retinol), retinol] the “In vitro Penetration Rate (apparent flux) of Parent compounds” value ([3]; human, 5 %, pH 7.4) was 0.005 mg/cm^2/h.
